The record followed here is article PMC11995724, “Antibiotic target discovery by integrated phenotypic and activity-based profiling of electrophilic fragments” (Cell chemical biology, 2025).

A short description of the series: in vitro. The settings on record: human, hek293t cells.
In the case of `C=CC(=O)N(Cc1cc(C)cc2c(C)c(C)[nH]c12)CC1(C)COC1` [2-E07, N-[(3-methyloxetan-3-yl)methyl]-N-[(2,3,5-trimethyl-1H-indol-7-yl)methyl]prop-2-enamide], the viability at 48 h, 25 µM was 80.6%.

With `CC(Cl)C(=O)N1CCN(c2nccc3sccc23)CC1` (stereo not drawn) [7-G10, 2-chloro-1-(4-{thieno[3,2-c]pyridin-4-yl}piperazin-1-yl)propan-1-one], the viability at 48 h, 25 µM came to 83.5%. For `C=CC(=O)N(C)Cc1ccncc1` [1-N21, N-methyl-N-[(pyridin-4-yl)methyl]prop-2-enamide], the viability at 48 h, 25 µM came to 135%. On to `C=CC(=O)N1CCC(C(=O)NCC(O)c2c(F)cccc2F)CC1` (stereo not drawn) [2-P14, N-[2-(2,6-difluorophenyl)-2-hydroxyethyl]-1-(prop-2-enoyl)piperidine-4-carboxamide], for which the viability at 48 h, 25 µM was determined as 102%.

For the compound `CC(=O)c1ccccc1NC(=O)C(C)Cl` (stereo not drawn) [5-O19, N-(2-acetylphenyl)-2-chloropropanamide], the viability at 48 h, 25 µM came to 90.1%.

Turning to `C=CC(=O)N1CCC(C(=O)NCc2nc(C)c(C)s2)CC1` [3-B12, N-[(4,5-dimethyl-1,3-thiazol-2-yl)methyl]-1-(prop-2-enoyl)piperidine-4-carboxamide], the viability at 48 h, 25 µM worked out at 87.5%.

In the case of `C=CC(=O)N1CC(OCc2nc(C)no2)C1` [1-P18, 1-{3-[(3-methyl-1,2,4-oxadiazol-5-yl)methoxy]azetidin-1-yl}prop-2-en-1-one], the viability at 48 h, 25 µM came to 67.7%.

With `O=C(CCl)NC1CCSc2ccc(F)cc21` (stereo not drawn) [5-M09, 2-chloro-N-(6-fluoro-3,4-dihydro-2H-1-benzothiopyran-4-yl)acetamide], the viability at 48 h, 25 µM amounted to 0.504%. Take `CN(C)S(=O)(=O)c1ccccc1CNC(=O)CCl` [4-J22, 2-chloro-N-{[2-(dimethylsulfamoyl)phenyl]methyl}acetamide]: the viability at 48 h, 25 µM was 1.7%. Consider `Cc1ccc(C2CS(=O)(=O)CCN2C(=O)C(C)Cl)o1` (stereo not drawn) [6-D19, 4-(2-chloropropanoyl)-3-(5-methylfuran-2-yl)-1lambda6-thiomorpholine-1,1-dione], for which the viability at 48 h, 25 µM is 107%. In the case of `C=CCNC(=O)C(C#N)=Cc1cccc(O)c1` [9-B09, 2-cyano-3-(3-hydroxyphenyl)-N-(prop-2-en-1-yl)prop-2-enamide], the viability at 48 h, 25 µM was found to be 113%. Regarding `O=C(CCc1ccccc1)NC1CCN(C(=O)CCl)CC1` [5-L08, N-[1-(2-chloroacetyl)piperidin-4-yl]-3-phenylpropanamide], the viability at 48 h, 25 µM was determined as 1.18%. Regarding `CC(Cl)C(=O)NC1CCN(S(=O)(=O)c2cnn(C)c2)CC1` (stereo not drawn) [7-O05, 2-chloro-N-{1-[(1-methyl-1H-pyrazol-4-yl)sulfonyl]piperidin-4-yl}propanamide], the viability at 48 h, 25 µM came to 113%.

For the compound `C=CC(=O)N(Cc1ccc(OC)cc1)[C@@H]1CCCC[C@H]1O` [2-M05, N-[(1R,2R)-2-hydroxycyclohexyl]-N-[(4-methoxyphenyl)methyl]prop-2-enamide], the viability at 48 h, 25 µM amounted to 97.6%. The result for `O=C(CCl)N1CC(Cc2ccc(F)cc2F)C1` [5-G20, 2-chloro-1-{3-[(2,4-difluorophenyl)methyl]azetidin-1-yl}ethan-1-one] reads 0.867%. On to `C=CC(=O)NCCC(=O)N1CCC2(CC(=O)c3ccccc3O2)C1` (stereo not drawn) [1-F12, N-(3-oxo-3-{4-oxo-3,4-dihydrospiro[1-benzopyran-2,3'-pyrrolidin]-1'-yl}propyl)prop-2-enamide], for which the viability at 48 h, 25 µM was 82.1%. With `CC(NC(=O)C(C#N)=Cc1ccco1)c1cccnc1` (stereo not drawn) [9-K03, 2-cyano-3-(furan-2-yl)-N-[1-(pyridin-3-yl)ethyl]prop-2-enamide] the figure was 129%; with `C=CC(=O)N(CC)CC(=O)N1CCN(c2ccc(C#N)cc2F)CC1` [3-D03, N-{2-[4-(4-cyano-2-fluorophenyl)piperazin-1-yl]-2-oxoethyl}-N-ethylprop-2-enamide], 74.4%. Turning to `C=CCNC(=O)C(C#N)=Cc1ccc(-c2ccc(F)cc2)s1` [9-C12, 2-cyano-3-[5-(4-fluorophenyl)thiophen-2-yl]-N-(prop-2-en-1-yl)prop-2-enamide], the viability at 48 h, 25 µM was 111%. For the compound `O=C(CCl)NCCc1nc2c(s1)CCCCC2` [4-J21, 2-chloro-N-(2-{4H,5H,6H,7H,8H-cyclohepta[d][1,3]thiazol-2-yl}ethyl)acetamide], the viability at 48 h, 25 µM worked out at 15%. Turning to `C=CCNC(=O)C(C#N)=Cc1cc(C)n(-c2ccc(C)cc2)c1C` [8-C17, 2-cyano-3-[2,5-dimethyl-1-(4-methylphenyl)-1H-pyrrol-3-yl]-N-(prop-2-en-1-yl)prop-2-enamide], the viability at 48 h, 25 µM stood at 60.7%. Consider `O=C1C=CC(=O)N1CCCCO` [10-K07, 1-(4-hydroxybutyl)-2,5-dihydro-1H-pyrrole-2,5-dione], for which the viability at 48 h, 25 µM was found to be 39.9%. Turning to `O=C(CCl)Cc1c(Cl)cccc1Cl` [10-K15, 1-chloro-3-(2,6-dichlorophenyl)propan-2-one], the viability at 48 h, 25 µM is 23.3%. As for `CC(Cl)C(=O)N1CCN(C(c2ccccc2)C(F)(F)F)CC1` (stereo not drawn) [6-P16, 2-chloro-1-[4-(2,2,2-trifluoro-1-phenylethyl)piperazin-1-yl]propan-1-one], the viability at 48 h, 25 µM turned out to be 114%. For `C=CC(=O)Nc1ccc(C(=O)NC2CCN(S(C)(=O)=O)CC2)cc1` [2-M21, N-(1-methanesulfonylpiperidin-4-yl)-4-(prop-2-enamido)benzamide], the viability at 48 h, 25 µM worked out at 90.2%.

`COc1cc(C=C(C#N)C(=O)Nc2cccc(Cl)c2)cc(O)c1O` [9-G20, N-(3-chlorophenyl)-2-cyano-3-(3,4-dihydroxy-5-methoxyphenyl)prop-2-enamide]: the viability at 48 h, 25 µM turned out to be 72.4%. `COc1cc(C=C(C#N)C(=O)NC2CCCCC2C)cc(OC)c1O` (stereo not drawn) [9-H21, 2-cyano-3-(4-hydroxy-3,5-dimethoxyphenyl)-N-(2-methylcyclohexyl)prop-2-enamide]: the viability at 48 h, 25 µM stood at 95.8%. With `C=CC(=O)N1CCC(C(=O)NC2CCOC3(CCSCC3)C2)CC1` (stereo not drawn) [2-B12, N-{1-oxa-9-thiaspiro[5.5]undecan-4-yl}-1-(prop-2-enoyl)piperidine-4-carboxamide] the figure was 97.1%; with `COc1ccc(O)c(C=C(C#N)C(=O)Nc2cccc3ccccc23)c1` [8-N14, 2-cyano-3-(2-hydroxy-5-methoxyphenyl)-N-(naphthalen-1-yl)prop-2-enamide], 117%; with `C=CC(=O)NC[C@@H]1C=C[C@H]2C[C@@H]1CO2` (racemic) [1-I03, rac-N-{[(1R,2S,5S)-6-oxabicyclo[3.2.1]oct-3-en-2-yl]methyl}prop-2-enamide], 78.1%. The result for `O=C(CCl)c1c[nH]c2ccncc12` [10-K05, 2-chloro-1-{1H-pyrrolo[3,2-c]pyridin-3-yl}ethan-1-one] reads 1.3%; that for `CC(Cl)C(=O)N1CCCc2c1ccnc2N(C)C` (stereo not drawn) [6-D14, 2-chloro-1-[5-(dimethylamino)-1,2,3,4-tetrahydro-1,6-naphthyridin-1-yl]propan-1-one], 109%. `C=CC(=O)N1CCC(C(=O)NCc2cnn(-c3ccccc3)c2)CC1` [3-O14, N-[(1-phenyl-1H-pyrazol-4-yl)methyl]-1-(prop-2-enoyl)piperidine-4-carboxamide]: the viability at 48 h, 25 µM was 91.1%. With `CC(Cl)C(=O)NCc1ncnn1C(C)C` (stereo not drawn) [5-P15, 2-chloro-N-{[1-(propan-2-yl)-1H-1,2,4-triazol-5-yl]methyl}propanamide] the figure was 125%; with `C=CC(=O)Nc1ncc(-c2cccc(C)c2)s1` [1-P14, N-[5-(3-methylphenyl)-1,3-thiazol-2-yl]prop-2-enamide], 63.6%.

`CCSc1nnc(NC(=O)CCl)s1` [5-N22, 2-chloro-N-[5-(ethylsulfanyl)-1,3,4-thiadiazol-2-yl]acetamide]: the viability at 48 h, 25 µM was found to be 7.36%. On to `CC(Cl)C(=O)N1CCCC1c1cccc(N(C)C)c1` (stereo not drawn) [7-A22, 2-chloro-1-{2-[3-(dimethylamino)phenyl]pyrrolidin-1-yl}propan-1-one], for which the viability at 48 h, 25 µM was 68.7%. Regarding `CC(C)NC(=O)C(C#N)=Cc1cccs1` [8-H15, 2-cyano-N-(propan-2-yl)-3-(thiophen-2-yl)prop-2-enamide], the viability at 48 h, 25 µM stood at 117%. Regarding `CC(Cl)C(=O)N1CCCN(C(=O)c2cc(Cl)cn2C)CC1` (stereo not drawn) [7-N07, 2-chloro-1-[4-(4-chloro-1-methyl-1H-pyrrole-2-carbonyl)-1,4-diazepan-1-yl]propan-1-one], the viability at 48 h, 25 µM was 94.5%. As for `C=CC(=O)NCc1ccc(C(=O)N2CCCOC(C)(C)C2)cc1` [3-N06, N-{[4-(2,2-dimethyl-1,4-oxazepane-4-carbonyl)phenyl]methyl}prop-2-enamide], the viability at 48 h, 25 µM is 70.7%. With `O=C(CCl)NC(c1ccccc1)c1ccccc1` [6-M12, 2-chloro-N-(diphenylmethyl)acetamide], the viability at 48 h, 25 µM came to 0.81%.

On to `C=CC(=O)NCc1cc(Cl)c2c(c1)OCCO2` [1-L05, N-[(8-chloro-2,3-dihydro-1,4-benzodioxin-6-yl)methyl]prop-2-enamide], for which the viability at 48 h, 25 µM turned out to be 112%. The result for `N#Cc1ccccc1NC(=O)CCl` [5-P04, 2-chloro-N-(2-cyanophenyl)acetamide] reads 0.525%; that for `C=CC(=O)N1CCCC(CNS(=O)(=O)C2CC2)C1` (stereo not drawn) [3-G21, N-{[1-(prop-2-enoyl)piperidin-3-yl]methyl}cyclopropanesulfonamide], 50.6%; that for `CC(NC(=O)C(C#N)=Cc1cccc(F)c1)c1ccccc1` (stereo not drawn) [8-L18, 2-cyano-3-(3-fluorophenyl)-N-(1-phenylethyl)prop-2-enamide], 34.6%. For the compound `CC(C)(C)c1ccc(C=C(C#N)C(=O)NCc2ccco2)cc1` [8-L14, 3-(4-tert-butylphenyl)-2-cyano-N-[(furan-2-yl)methyl]prop-2-enamide], the viability at 48 h, 25 µM is 76.1%. As to `O=C(CCl)N(Cc1ccc(Cl)c([N+](=O)[O-])c1)c1ccccc1` [6-H06, 2-chloro-N-[(4-chloro-3-nitrophenyl)methyl]-N-phenylacetamide], the viability at 48 h, 25 µM is 0.976%. The result for `CC(Cl)C(=O)N1Cc2cnn(C)c2C1` (stereo not drawn) [7-K09, 2-chloro-1-{1-methyl-1H,4H,5H,6H-pyrrolo[3,4-c]pyrazol-5-yl}propan-1-one] reads 87%.
